Experimental data taken from patent publication US20230150974A1 (Foghorn Therapeutics Inc., priority 2020, published 2023).

Key:
[1] = molecular target: T1, HiBiT-BRM (Homo sapiens, UniProt P51531); test: HiBiT-BRM cell-based degradation assay (Nano-Glo HiBiT Lytic Detection); conditions: HeLa cells expressing HiBiT-BRM, 24 h; for DC50: read-out: BRM HiBit Degradation IC50
T1 construct: expressed in transfected cells
Summary of the method: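 Luminescence from HiBiT–LgBiT complementation in lysates of a stable HiBiT-BRM HeLa line measured after 24 h compound exposure. Degradation expressed as percent relative to DMSO-treated cells and cells given 2 μM of a known BRM/BRG1 degrader.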

[2] = molecular target: T2, HiBit-BRG1 (Homo sapiens, UniProt P51532); test: HiBit-BRG1 cell-based degradation assay (Nano-Glo HiBiT Lytic Detection); conditions: HeLa cells expressing HiBit-BRG1 and LgBit, 24 h; for DC50: read-out: BRG1 HiBit Degradation IC50; for Dmax: read-out: BRG1 HiBit Degradation Maximum (%)
T2 construct: expressed in transfected cells
Summary of the method: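 HeLa cells stably expressing HiBit-BRG1 plus LgBit; compound exposure 24 h; Nano-Glo HiBiT lytic luminescence; % degradation vs DMSO (0%) and 2 μM standard BRM/BRG1 degrader (100%).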

T2 sequence (P51532 whole entry): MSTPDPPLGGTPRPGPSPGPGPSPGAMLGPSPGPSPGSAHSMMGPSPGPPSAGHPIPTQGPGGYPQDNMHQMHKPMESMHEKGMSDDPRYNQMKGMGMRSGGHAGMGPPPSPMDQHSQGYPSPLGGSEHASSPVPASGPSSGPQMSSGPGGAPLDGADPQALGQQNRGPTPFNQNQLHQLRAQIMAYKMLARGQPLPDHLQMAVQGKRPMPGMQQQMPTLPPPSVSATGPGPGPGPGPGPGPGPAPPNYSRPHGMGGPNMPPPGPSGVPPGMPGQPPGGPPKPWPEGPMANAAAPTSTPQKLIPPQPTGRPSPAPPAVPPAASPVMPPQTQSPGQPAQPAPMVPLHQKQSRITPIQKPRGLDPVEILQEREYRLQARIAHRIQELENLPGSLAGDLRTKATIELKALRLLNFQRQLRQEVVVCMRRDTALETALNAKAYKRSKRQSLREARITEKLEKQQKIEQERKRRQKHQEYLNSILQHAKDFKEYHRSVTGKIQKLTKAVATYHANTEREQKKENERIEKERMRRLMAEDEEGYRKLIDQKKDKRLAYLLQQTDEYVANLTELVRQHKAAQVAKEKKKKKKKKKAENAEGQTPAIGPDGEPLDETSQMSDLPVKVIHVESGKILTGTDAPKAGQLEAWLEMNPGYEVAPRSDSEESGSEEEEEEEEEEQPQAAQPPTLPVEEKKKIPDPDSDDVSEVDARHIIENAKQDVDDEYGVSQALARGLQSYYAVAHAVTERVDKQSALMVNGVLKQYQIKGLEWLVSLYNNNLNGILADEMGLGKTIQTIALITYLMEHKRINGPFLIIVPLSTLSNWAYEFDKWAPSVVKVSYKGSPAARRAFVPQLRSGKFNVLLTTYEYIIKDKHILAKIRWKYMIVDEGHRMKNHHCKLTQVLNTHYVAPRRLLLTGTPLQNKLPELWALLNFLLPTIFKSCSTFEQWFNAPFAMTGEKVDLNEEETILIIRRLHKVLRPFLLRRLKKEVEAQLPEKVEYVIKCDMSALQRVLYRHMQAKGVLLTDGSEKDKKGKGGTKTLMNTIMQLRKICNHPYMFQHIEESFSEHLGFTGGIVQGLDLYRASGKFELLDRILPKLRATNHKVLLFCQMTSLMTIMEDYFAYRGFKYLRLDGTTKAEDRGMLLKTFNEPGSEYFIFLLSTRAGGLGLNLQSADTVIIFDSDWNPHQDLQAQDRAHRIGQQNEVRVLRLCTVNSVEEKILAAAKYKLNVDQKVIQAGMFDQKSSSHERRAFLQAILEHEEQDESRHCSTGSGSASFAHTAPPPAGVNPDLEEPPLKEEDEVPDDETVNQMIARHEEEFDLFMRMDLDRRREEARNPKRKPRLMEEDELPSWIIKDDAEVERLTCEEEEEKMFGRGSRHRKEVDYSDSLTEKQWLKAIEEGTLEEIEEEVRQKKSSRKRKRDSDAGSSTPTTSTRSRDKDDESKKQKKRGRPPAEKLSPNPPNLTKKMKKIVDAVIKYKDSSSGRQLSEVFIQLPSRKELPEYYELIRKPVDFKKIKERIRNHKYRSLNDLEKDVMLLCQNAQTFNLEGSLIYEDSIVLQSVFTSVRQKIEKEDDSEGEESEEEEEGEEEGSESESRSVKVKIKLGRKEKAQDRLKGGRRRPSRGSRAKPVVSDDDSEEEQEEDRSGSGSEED
T1 sequence (P51531 whole entry): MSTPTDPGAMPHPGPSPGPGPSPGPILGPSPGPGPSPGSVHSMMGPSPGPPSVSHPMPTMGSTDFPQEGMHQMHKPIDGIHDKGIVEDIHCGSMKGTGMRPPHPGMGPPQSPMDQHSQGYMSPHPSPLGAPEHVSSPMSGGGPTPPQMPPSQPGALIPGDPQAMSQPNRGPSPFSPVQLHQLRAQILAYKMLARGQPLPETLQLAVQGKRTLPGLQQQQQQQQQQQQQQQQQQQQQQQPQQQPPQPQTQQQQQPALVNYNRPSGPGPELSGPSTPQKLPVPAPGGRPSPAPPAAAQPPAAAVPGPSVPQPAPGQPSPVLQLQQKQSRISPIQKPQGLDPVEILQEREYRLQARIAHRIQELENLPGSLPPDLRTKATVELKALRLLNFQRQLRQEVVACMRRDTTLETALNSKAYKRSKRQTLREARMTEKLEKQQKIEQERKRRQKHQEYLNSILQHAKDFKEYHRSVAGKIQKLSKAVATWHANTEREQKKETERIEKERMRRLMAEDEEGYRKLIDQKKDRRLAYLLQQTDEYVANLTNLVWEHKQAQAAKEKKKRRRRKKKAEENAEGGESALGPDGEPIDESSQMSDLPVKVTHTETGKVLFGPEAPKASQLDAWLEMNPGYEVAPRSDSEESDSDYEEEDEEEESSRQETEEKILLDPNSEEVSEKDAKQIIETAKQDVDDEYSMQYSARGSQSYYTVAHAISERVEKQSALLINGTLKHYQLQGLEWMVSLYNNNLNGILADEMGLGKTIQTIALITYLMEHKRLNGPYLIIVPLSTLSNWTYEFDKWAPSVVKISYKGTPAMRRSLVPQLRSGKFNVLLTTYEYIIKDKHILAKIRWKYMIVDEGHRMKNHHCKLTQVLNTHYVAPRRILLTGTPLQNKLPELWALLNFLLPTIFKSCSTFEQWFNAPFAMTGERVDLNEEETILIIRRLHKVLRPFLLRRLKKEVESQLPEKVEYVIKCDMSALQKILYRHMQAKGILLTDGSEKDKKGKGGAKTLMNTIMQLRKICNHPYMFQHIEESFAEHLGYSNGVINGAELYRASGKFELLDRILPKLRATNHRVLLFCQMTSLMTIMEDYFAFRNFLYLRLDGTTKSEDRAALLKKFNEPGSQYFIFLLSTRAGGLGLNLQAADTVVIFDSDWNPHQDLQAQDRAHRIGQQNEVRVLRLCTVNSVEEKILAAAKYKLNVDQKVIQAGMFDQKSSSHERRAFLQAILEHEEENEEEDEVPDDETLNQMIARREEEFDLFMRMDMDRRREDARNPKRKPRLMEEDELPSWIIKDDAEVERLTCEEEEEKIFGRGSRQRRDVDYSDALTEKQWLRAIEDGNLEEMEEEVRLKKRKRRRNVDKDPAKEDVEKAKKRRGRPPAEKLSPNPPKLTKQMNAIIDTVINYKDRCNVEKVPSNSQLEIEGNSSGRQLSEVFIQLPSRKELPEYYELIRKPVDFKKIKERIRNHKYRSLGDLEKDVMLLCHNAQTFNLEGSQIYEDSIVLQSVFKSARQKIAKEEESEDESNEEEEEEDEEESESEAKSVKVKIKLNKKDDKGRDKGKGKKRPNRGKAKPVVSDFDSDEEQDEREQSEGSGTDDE

| DC50 [1] [nM] | DC50 [2] [nM] | Dmax [2] [%] | Structure (SMILES) | BRM HiBit Degradation Maximum (%) [1] |
| --- | --- | --- | --- | --- |
| > 10 | > 100 | > 75 | Cc1ncsc1-c1ccc([C@H](C)NC(=O)[C@@H]2C[C@@H](O)CN2C(=O)[C@@H](c2cc(OCCN3C[C@@H]4[C@H](C3)[C@H]4C(=O)NCc3ccc(CCOc4cc(-c5ccccc5O)nnc4N)cc3)no2)C(C)C)cc1 [Compound 194] | A (“A” indicates maximum degradation ≥75%) |
| > 1000 | > 1000 | < 50 | Nc1nnc(-c2ccccc2O)cc1OCCc1ccc(CNC(=O)CCCCOc2cccc3c2CN(C2CCC(=O)NC2=O)C3=O)cc1 (stereo not drawn) [Compound 130, N-(4-(2-((3-amino-6-(2-hydroxyphenyl)pyridazin-4-yl)oxy)ethyl)benzyl)-5-((2-(2,6-dioxopiperidin-3-yl)-1-oxoisoindolin-4-yl)oxy)pentanamide] | C (“C” indicates maximum degradation <50%) |
| > 1000 | > 1000 | < 50 | Cc1ncsc1-c1ccc(CNC(=O)[C@@H]2C[C@@H](O)CN2C(=O)[C@@H](NC(=O)CCN2CC(C3CCN(C(=O)c4ccc(CCOc5cc(-c6ccccc6O)nnc5N)cc4)CC3)C2)C(C)(C)C)cc1 [Compound 199, (2S,4R)-1-((S)-2-(3-(3-(1-(4-(2-((3-amino-6-(2-hydroxyphenyl)pyridazin-4-yl)oxy)ethyl)benzoyl)piperidin-4-yl)azetidin-1-yl)propanamido)-3,3-dimethylbutanoyl)-4-hydroxy-N-(4-(4-methylthiazol-5-yl)benzyl)pyrrolidine-2-carboxamide] | C (“C” indicates maximum degradation <50%) |
| > 1000 | > 1000 | < 50 | Nc1nnc(-c2ccccc2O)cc1N1CCN(CC(=O)N2CC(COc3ccc4c(c3)C(=O)N(C3CCC(=O)NC3=O)C4=O)C2)CC1 (stereo not drawn) [Compound 81, 5-((1-(2-(4-(3-amino-6-(2-hydroxyphenyl)pyridazin-4-yl)piperazin-1-yl)acetyl)azetidin-3-yl)methoxy)-2-(2,6-dioxopiperidin-3-yl)isoindoline-1,3-dione] | C (“C” indicates maximum degradation <50%) |
| > 1000 | > 1000 | < 50 | Nc1nnc(-c2ccccc2O)cc1N1CCN(CCNC(=O)CCCCCCCOc2cccc3c2C(=O)N(C2CCC(=O)NC2=O)C3=O)CC1 (stereo not drawn) [Compound 90, N-(2-[4-[3-amino-6-(2-hydroxyphenyl)pyridazin-4-yl]piperazin-1-yl]ethyl)-8-[[2-(2,6-dioxopiperidin-3-yl)-1,3-dioxo-2,3-dihydro-1H-isoindol-4-yl]oxy]octanamide] | C (“C” indicates maximum degradation <50%) |
| > 1000 | > 1000 | < 50 | Cc1ncsc1-c1ccc(CNC(=O)[C@@H]2C[C@@H](O)CN2C(=O)[C@@H](NC(=O)CCN2CCC3(CC2)CC(C(=O)NCc2ccc(CCOc4cc(-c5ccccc5O)nnc4N)cc2)C3)C(C)(C)C)cc1 [Compound 186, N-[[4-(2-[[3-amino-6-(2-hydroxyphenyl)pyridazin-4-yl]oxy]ethyl)phenyl]methyl]-7-(2-[[(2S)-1-[(2S,4R)-4-hydroxy-2-([[4-(4-methyl-1,3-thiazol-5-yl)phenyl]methyl]carbamoyl)pyrrolidin-1-yl]-3,3-dimethyl-1-oxobutan-2-yl]carbamoyl]ethyl)-7-azaspiro[3.5]nonane-2-carboxamide] | C (“C” indicates maximum degradation <50%) |
| > 1000 | > 1000 | < 50 | Nc1nnc(-c2ccccc2O)cc1OCCc1ccc(CNC(=O)CCCCCCCCNc2cccc3c2C(=O)N(C2CCC(=O)NC2=O)C3=O)cc1 (stereo not drawn) [Compound 71, N-[[4-(2-[[3-amino-6-(2-hydroxyphenyl)pyridazin-4-yl]oxy]ethyl)phenyl]methyl]-9-[[2-(2,6-dioxopiperidin-3-yl)-1,3-dioxoisoindol-4-yl]amino]nonanamide] | C (“C” indicates maximum degradation <50%) |
| > 100 | > 1000 | < 50 | Cc1ncsc1-c1ccc(CNC(=O)[C@@H]2C[C@@H](O)CN2C(=O)[C@@H](NC(=O)CCCCCCCCCCCCCC(=O)NCc2ccc(CCOc3cc(-c4ccccc4O)nnc3N)cc2)C(C)C)cc1 [Compound 169, N1-(4-(2-((3-amino-6-(2-hydroxyphenyl)pyridazin-4-yl)oxy)ethyl)benzyl)-N15-((S)-1-((2S,4R)-4-hydroxy-2-((4-(4-methylthiazol-5-yl)benzyl)carbamoyl)pyrrolidin-1-yl)-3-methyl-1-oxobutan-2-yl)pentadecanediamide] | B (“B” indicates maximum degradation ≥50%) |
| > 1000 | > 1000 | < 50 | Cc1ncsc1-c1ccc(CNC(=O)[C@@H]2C[C@@H](O)CN2C(=O)[C@@H](NC(=O)CCN2CCC(OC3CCN(CCC(=O)NCc4ccc(CCOc5cc(-c6ccccc6O)nnc5N)cc4)CC3)CC2)C(C)(C)C)cc1 [Compound 236, (2S,4R)-1-((S)-2-(3-(4-((1-(3-((4-(2-((3-amino-6-(2-hydroxyphenyl)pyridazin-4-yl)oxy)ethyl)benzyl)amino)-3-oxopropyl)piperidin-4-yl)oxy)piperidin-1-yl)propanamido)-3,3-dimethylbutanoyl)-4-hydroxy-N-(4-(4-methylthiazol-5-yl)benzyl)pyrrolidine-2-carboxamide] | B (“B” indicates maximum degradation ≥50%) |
| > 100 | > 1000 | < 50 | Nc1nnc(-c2ccccc2O)cc1OCCc1ccc(C(=O)NCCCCCCCCNc2cccc3c2C(=O)N(C2CCC(=O)NC2=O)C3=O)cc1 (stereo not drawn) [Compound 44, 4-(2-((3-amino-6-(2-hydroxyphenyl)pyridazin-4-yl)oxy)ethyl)-N-(8-((2-(2,6-dioxopiperidin-3-yl)-1,3-dioxoisoindolin-4-yl)amino)octyl)benzamide] | B (“B” indicates maximum degradation ≥50%) |
| > 10 | > 1000 | < 50 | Cc1ncsc1-c1ccc([C@H](C)NC(=O)[C@@H]2C[C@@H](O)CN2C(=O)[C@@H](c2cc(OCCN3CCN(c4cc(-c5ccccc5O)nnc4N)CC3)no2)C(C)C)cc1 [Compound 217, (2S,4R)-1-((R)-2-(3-(2-(4-(3-amino-6-(2-hydroxyphenyl)pyridazin-4-yl)piperazin-1-yl)ethoxy)isoxazol-5-yl)-3-methylbutanoyl)-4-hydroxy-N-((S)-1-(4-(4-methylthiazol-5-yl)phenyl)ethyl)pyrrolidine-2-carboxamide] | A (“A” indicates maximum degradation ≥75%) |
| > 1000 | > 1000 | < 50 | Cc1ncsc1-c1ccc(CNC(=O)[C@@H]2C[C@@H](O)CN2C(=O)[C@@H](NC(=O)CN2CCC3(CCN(CCC(=O)NCc4ccc(CCOc5cc(-c6ccccc6O)nnc5N)cc4)CC3)CC2)C(C)(C)C)cc1 [Compound 266, (2S,4R)-1-((S)-2-(2-(9-(3-((4-(2-((3-amino-6-(2-hydroxyphenyl)pyridazin-4-yl)oxy)ethyl)benzyl)amino)-3-oxopropyl)-3,9-diazaspiro[5.5]undecan-3-yl)acetamido)-3,3-dimethylbutanoyl)-4-hydroxy-N-(4-(4-methylthiazol-5-yl)benzyl)pyrrolidine-2-carboxamide] | A (“A” indicates maximum degradation ≥75%) |
| > 100 | > 1000 | > 50 | Nc1nnc(-c2ccccc2O)cc1OCCc1ccc(CNCCCCCNc2cccc3nnn(C4CCC(=O)NC4=O)c(=O)c23)cc1 (stereo not drawn) [Compound 120, 3-(5-[[5-([[4-(2-[[3-amino-6-(2-hydroxyphenyl)pyridazin-4-yl]oxy]ethyl)phenyl]methyl]amino)pentyl]amino]-4-oxo-1,2,3-benzotriazin-3-yl)piperidine-2,6-dione] | B (“B” indicates maximum degradation ≥50%) |
| > 1000 | > 1000 | < 50 | Cc1ncsc1-c1ccc(CNC(=O)[C@@H]2C[C@@H](O)CN2C(=O)[C@@H](NC(=O)COCCOCCOCCNC(=O)CN2CCN(c3cc(-c4ccccc4O)nnc3N)CC2)C(C)(C)C)cc1 [Compound 86, (2S,4R)-1-[(2S)-2-[2-(2-[2-[2-(2-[4-[3-amino-6-(2-hydroxyphenyl)pyridazin-4-yl]piperazin-1-yl]acetamido)ethoxy]ethoxy]ethoxy)acetamido]-3,3-dimethylbutanoyl]-4-hydroxy-N-[[4-(4-methyl-1,3-thiazol-5-yl)phenyl]methyl]pyrrolidine-2-carboxamide] | C (“C” indicates maximum degradation <50%) |
| > 1000 | > 1000 | < 50 | Cc1ncsc1-c1ccc([C@H](C)NC(=O)[C@@H]2C[C@@H](O)CN2C(=O)[C@@H](NC(=O)CN2CCC3(CCN(CCC(=O)NCc4ccc(CCOc5cc(-c6ccccc6O)nnc5N)cc4)CC3)CC2)C(C)(C)C)cc1 [Compound 267, (2S,4R)-1-((S)-2-(2-(9-(3-((4-(2-((3-amino-6-(2-hydroxyphenyl)pyridazin-4-yl)oxy)ethyl)benzyl)amino)-3-oxopropyl)-3,9-diazaspiro[5.5]undecan-3-yl)acetamido)-3,3-dimethylbutanoyl)-4-hydroxy-N-((S)-1-(4-(4-methylthiazol-5-yl)phenyl)ethyl)pyrrolidine-2-carboxamide] | A (“A” indicates maximum degradation ≥75%) |
